From ChEMBL document CHEMBL1137755, “[35S]GTP gamma S binding studies of amphiphilic drugs-activated Gi proteins: a caveat” (Bioorg Med Chem Lett, 2009) come the findings set out here.

Molecules are shown by their SMILES. The source made the active and inactive calls. The rule behind the calls is not given here.

Data set [1] concerns the target Guanine nucleotide-binding protein G(i) subunit alpha-1 (Homo sapiens) (UniProt P63096). Nature of the data set: Activation of human Gi protein alpha1 subunit expressed in Escherichia coli assessed as protein bound [35S]GTPgammaS levels by scintillation spectroscopy. It counts as functional.
Data set [2] has the same target. The data set is described as follows: Activation of human Gi protein alpha1 subunit expressed in Escherichia coli assessed as protein bound [35S]GTPgammaS levels at 10 uM by scintillation spectroscopy. In kind it is functional.
For data set [3] the target is unchanged. The data set is described as follows: Activation of human Gi protein alpha1 subunit expressed in Escherichia coli assessed as protein bound [35S]GTPgammaS levels at 10 uM by scintillation spectroscopy relative to basal. In kind it is functional.
For data set [4] the target is unchanged. Nature of the data set: Activation of human Gi protein alpha1 subunit expressed in Escherichia coli assessed as protein bound [35S]GTPgammaS levels at 1 uM by scintillation spectroscopy. In kind it is functional.
For data set [5] the target is unchanged. Nature of the data set: Activation of human Gi protein alpha1 subunit expressed in Escherichia coli assessed as protein bound [35S]GTPgammaS levels at 5 uM by scintillation spectroscopy. It counts as functional.
For data set [6] the target is unchanged. Nature of the data set: Activation of human Gi protein alpha1 subunit expressed in Escherichia coli assessed as protein bound [35S]GTPgammaS levels at 50 uM by scintillation spectroscopy. It counts as functional.
The nature of data set [7]: Critical micelle concentration by drop-shape analysis. It counts as physicochemical.
Data set [8] has as its target Guanine nucleotide-binding protein G(o) subunit alpha (Homo sapiens) (UniProt P09471). The data set is described as follows: Activation of human Go protein alpha subunit expressed in Escherichia coli assessed as protein bound [35S]GTPgammaS levels at 1 uM by scintillation spectroscopy. It counts as functional.
Data set [9] shares this target. Nature of the data set: Activation of human Go protein alpha subunit expressed in Escherichia coli assessed as protein bound [35S]GTPgammaS levels at 100 uM by scintillation spectroscopy. It counts as functional.
Data set [10] deals with Guanine nucleotide-binding protein G(i) subunit alpha-1 (Homo sapiens) (UniProt P63096). The data set is described as follows: Activation of human Gi protein alpha1 subunit expressed in Escherichia coli assessed as protein bound [35S]GTPgammaS levels at 100 uM by scintillation spectroscopy. It counts as functional.
Sequence of Guanine nucleotide-binding protein G(i) subunit alpha-1 (Homo sapiens) (P63096 whole entry): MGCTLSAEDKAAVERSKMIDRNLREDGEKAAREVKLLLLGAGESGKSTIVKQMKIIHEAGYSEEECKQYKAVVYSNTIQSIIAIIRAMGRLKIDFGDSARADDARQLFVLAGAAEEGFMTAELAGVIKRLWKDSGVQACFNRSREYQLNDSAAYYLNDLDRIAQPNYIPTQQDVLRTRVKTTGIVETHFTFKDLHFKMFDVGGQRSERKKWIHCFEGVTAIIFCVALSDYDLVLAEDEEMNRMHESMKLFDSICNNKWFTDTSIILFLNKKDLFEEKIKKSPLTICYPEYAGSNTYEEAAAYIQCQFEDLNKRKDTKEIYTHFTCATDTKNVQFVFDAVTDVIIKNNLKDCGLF
Data set [11] has as its target Guanine nucleotide-binding protein G(o) subunit alpha (Homo sapiens) (UniProt P09471). The data set is described as follows: Activation of human Go protein alpha subunit expressed in Escherichia coli assessed as protein bound [35S]GTPgammaS levels at 10 uM by scintillation spectroscopy. It counts as functional.
Data set [12] has the same target. The data set is described as follows: Activation of human Go protein alpha subunit expressed in Escherichia coli assessed as protein bound [35S]GTPgammaS levels at 5 uM by scintillation spectroscopy. It counts as functional.
For data set [13] the target is unchanged. The data set is described as follows: Activation of human Go protein alpha subunit expressed in Escherichia coli assessed as protein bound [35S]GTPgammaS levels at 10 uM by scintillation spectroscopy relative to basal. In kind it is functional.
Data set [14] has the same target. The data set is described as follows: Activation of human Go protein alpha subunit expressed in Escherichia coli assessed as protein bound [35S]GTPgammaS levels at 50 uM by scintillation spectroscopy. In kind it is functional.

Sequence of Guanine nucleotide-binding protein G(o) subunit alpha (Homo sapiens) (P09471 2-354 limits assumed): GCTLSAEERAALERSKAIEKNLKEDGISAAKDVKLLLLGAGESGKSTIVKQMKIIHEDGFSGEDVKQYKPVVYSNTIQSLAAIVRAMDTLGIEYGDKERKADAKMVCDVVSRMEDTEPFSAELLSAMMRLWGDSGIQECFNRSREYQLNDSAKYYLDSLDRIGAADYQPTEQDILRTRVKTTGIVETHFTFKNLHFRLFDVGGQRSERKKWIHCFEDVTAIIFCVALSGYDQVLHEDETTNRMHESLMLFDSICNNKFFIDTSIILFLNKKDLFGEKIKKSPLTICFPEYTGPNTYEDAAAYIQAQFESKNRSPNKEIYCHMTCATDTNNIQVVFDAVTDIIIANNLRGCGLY

In the case of `CCOCCOCCOCCNC1CCNCC1`, the result in data set [1] was inactive.

In the case of `CCOCCOCCOCCOCCOCCNC1CCNCC1`, the outcome in data set [1] was inactive.

Turning to `CCCCCN1CCC(C2CCNCC2)CC1`, the result in data set [1] was inactive.

`CCCCCCCCCCCCCCCNC1CCN(C(=O)[C@@H](N)CCCCN)CC1`: in [1], the outcome was Active.

With `CCCCCCCNN1CCNCC1`, the result in data set [1] was inactive.

Regarding `CCOCCOCCOCCNN1CCNCC1`, the result in data set [1] was inactive.

As for `CCOCCOCCOCCNCC1CCNCC1`, the result in data set [1] was inactive.

Turning to `CCCCCCCCCCCCCCC(=O)N1CCC(C2CCN(CCN)CC2)CC1`, the Activity was found to be 87 fmol in data set [2]; 877% in data set [3]; 30.3 fmol in data set [4]; 76.2 fmol in data set [5]; 103 fmol in data set [6].

On to `CCCCCNN1CCNCC1`, for which the outcome in data set [1] was inactive.

Turning to `CCCCCCCCCCCCCCCN1CCC(C2CCN(C(=O)[C@@H](N)CCCCN)CC2)CC1`, the outcome in [1] was Active.

For `CCCCCCCNC1CCNCC1`, in [1], the outcome was inactive.

For the molecule `CCOCCOCCOCCOCCNC1CCNCC1`, the result in [1] was inactive.

For the molecule `c1ccc(CCCCNN2CCNCC2)cc1`, the result in [1] was inactive.

As for `CCOCCOCCOCCOCCOCCN1CCC(C2CCNCC2)CC1`, the outcome in [1] was inactive.

Turning to `CCCCCCCCCCCCCCC(=O)N1CCC(C2CCN(C(=O)[C@@H](N)CCCCN)CC2)CC1`, in [1], the outcome was Active.

As to `CCCCCCCCCCCCCCCNCC1CCN(CCNC=O)CC1`, the Activity came out at 113 fmol in data set [2]; 1170% in data set [3]; 8.9 fmol in data set [4]; 69.1 fmol in [5]; 980 fmol in [6].

On to `CCCCCNC1CCNCC1`, for which the result in data set [1] was inactive.

Consider `CCCCCNCC1CCNCC1`, for which, in data set [1], the outcome was inactive.

`c1ccc(CCCCNCC2CCNCC2)cc1`: the result in data set [1] was inactive.

For the molecule `CCCCCCCCCCCCCCCN1CCC(NC(=O)[C@@H](N)CCCCN)CC1`, the Activity in data set [2] is 157 fmol; in data set [3], 1660%; in [4], 23.7 fmol; in data set [5], 103 fmol; in data set [6], 185 fmol.

With `c1ccc(CCCCNC2CCNCC2)cc1`, the result in data set [1] was inactive.

With `CCCCCCCCCN1CCC(C2CCNCC2)CC1`, in data set [1], the result was inactive.

Take `CCCCCCCCCNN1CCNCC1`: the outcome in data set [1] was inactive.

With `CCCCCCCCCCCCCCCNC1CCN(CCNC(=O)[C@@H](N)CCCCN)CC1`, the result in data set [1] was Active.

In [7], `CCCCCCCCCCCCCCCNC1CCN(CCN)CC1` gave a CMC of 1 ×10⁻⁴ M. Moreover, in [1], the outcome was Active.

In the case of `CCCCCCCCCCCCCCCN1CCC(C2CCN(CCN)CC2)CC1`, the Activity in [2] is 234 fmol; in data set [3], 2550%; in [4], 11.6 fmol; in data set [5] it was 78.7 fmol; in data set [6], 2300 fmol.

`CCCCCCCCCNC1CCNCC1`: the result in [1] was inactive.

For `CCCCCCCCCCCCCCCNC1CCNCC1`, the Activity is 70.6 fmol in [2]; 102 fmol in data set [8]; 1420 fmol in data set [9]; 195 fmol in data set [10]; 636 fmol in data set [11]; 693% in [3]. Besides, the Activity in data set [4] came out at 15.4 fmol; in [5], 49.5 fmol; in data set [12] it was 363 fmol; in data set [6] it was 196 fmol; in data set [13], 668%; in data set [14], 1400 fmol. The molecule also gave a CMC in data set [7] of 1.44 ×10⁻⁴ M.

On to `CCCCCCCCCCCCCCCN1CCC(C2CCN(CCNC(=O)[C@@H](N)CCCCN)CC2)CC1`, for which the Activity was found to be 275 fmol in data set [2]; 2990% in data set [3]; 19.9 fmol in data set [4]; 33.3 fmol in data set [5]; 781 fmol in data set [6]. The CMC in data set [7] was found to be 1.41 ×10⁻⁴ M.

With `CCOCCOCCOCCN1CCC(C2CCNCC2)CC1`, the result in data set [1] was inactive.

Take `CCOCCOCCOCCOCCN1CCC(C2CCNCC2)CC1`: in data set [1], the result was inactive.

In the case of `c1ccc(CCCCN2CCC(C3CCNCC3)CC2)cc1`, in data set [1], the result was inactive.

Consider `CCCCCCCN1CCC(C2CCNCC2)CC1`, for which, in data set [1], the result was inactive.
